# Laboratory results: US6372884B1, “Biologically active compounds and methods of constructing and using the same” (priority 1987, dated 2002)
# Ends that are not written are not given here.
# How the values were obtained:
# [1] = tested on: reovirus type 3 receptor on R1.1 cells; assay: Down-modulation of reovirus type 3 receptor, flow cytometry with 87.92.6; type: cell-based, murine; details: for level of expression of the reovirus type 3 receptor: 1 hour at 37° C., up to 500 μg/ml peptide, FIGS. 5A-D; for reovirus type 3 receptor expression (decrease in mean channel fluorescence): peptides 100 μg/ml, three experiments, FIG. 6
# [2] = tested on: C3H female mouse spleenocytes; assay: Lymphocyte proliferation with or without concanavalin A; type: cell-based; details: for inhibition of spontaneous lymphocyte proliferation: absence of con A, FIG. 7A; for inhibition of con A induced lymphocyte proliferation: presence of con A, FIGS. 7B, 8A, 8B; for biologic activity compared with VL peptide: summary statement in the discussion
# [3] = tested on: Thy 1.2 molecules on R1.1 cells; assay: Expression of Thy 1.2 molecules, flow cytometry with HO 13.4; type: cell-based, murine; details: for expression of Thy 1.2 molecules: 1 hour at 37° C., up to 500 μg/ml peptide, FIGS. 5A-D
# L cells = assay: Inhibition of L cell DNA synthesis (tritiated thymidine); type: cell-based, murine; details: tritiated thymidine incorporation after 24 hours, FIGS. 3 and 4
# Protocol: Reovirus type 3 inhibits host cell DNA synthesis upon receptor perturbation. This effect is not due to infection of cells as replication defective reovirus type 3 particles retain this property. L cells were cultured at 5 ×10^4 cells per well of 96 well microtiter plates in 100 μl media for 24 hours. Reovirus type 3 particles (A) were added and incubated for an additional 24 hours prior to the addition of tritiated thymidine. Purified monoclonal antibodies 87.92.6 or HO 22.1 (B) were added for 1 hour at 37° C., then the culture media removed and replaced with 100 μl fresh media for 24 hours, prior to the addition of tritiated thymidine. The cells were incubated for an additional 4-6 hours and counts per minute (CPM) incorporated were determined.
# 87.92.6 is effective only as a native antibody while monomeric Fab fragments have no effect. VL peptide was synthesized with an additional amino terminal cysteine residue (VLSH) to form a dimeric peptide. VLSH peptide was dimerized by stirring a 5 mg/ml solution in 0.1 M ammonium bicarbonate overnight at 23° C. exposed to air. The peptides were then lyophilized. Dimerization was confirmed by Ellman determination according to the procedure of Ellman, G. L. Arch. […] Tritiated thymidine was added for an additional 4-6 hours, and counts per minute (CPM) incorporated was determined. Per cent inhibition was determined by the formula: [formula]
# monoclonal antibody 9BG5 = assay: Inhibition of binding of radioiodinated reovirus type 3 particles to 9BG5 coated wells; parameters: species or system mouse; details: for binding to neutralizing monoclonal antibody 9BG5, variant peptide compared with VL peptide: relative to VL peptide
# Protocol: The wells of microtiter plates were coated with neutralizing anti-reovirus type 3 monoclonal antibody 9BG5 or irrelevant class matched monoclonal A11 by adsorption to staphylococcal protein A (SPA). SPA (sigma Chemical Co., St. Louis, Mo.) was diluted to 5 μg/ml in 0.1 M NaHCO3 pH 9.6 and 50 μl/well dispensed into 96 well polystyrene plates. Following overnight incubation at 4° C., the. wells were decanted, washed three times in PBS, and blocked with 2% BSA in PBS with 0.1% NaN3 for one hour at 37° C. The wells were decanted, washed three times in PBS and monoclonal antibody 9BG5 diluted to 10 μg/ml in 1% BSA in PBS with 0.1% NaN3 was added (50 μl/well) for 1-3 hours at 37° C. […] The wells were decanted and washed three times in PBS. Competitors were added at the concentrations noted (100 μl/well) diluted in 0.5% BSA in 5 mM phosphate buffer with 0.45% NaCl and preincubated for 45-60 minutes at 23° C. […] Following preincubation with inhibitors, radioiodinated reovirus type 3 particles diluted in 1% BSA in PBS with 0.1% NaN3 were added (5-10×10^5 CPM per well), and the incubation continued for 45 minutes. Wells were decanted, washed 8-10 times with PBS and the CPM bound determined. […] As shown in FIGS. 10A-C, 6,700 CPM were bound to 9BG5 coated wells and 500 CPM were bound to control (A11 ) coated wells in the absence of inhibitors. The mean ± standard deviation of binding inhibition (Determined as noted for FIG. 9) of replicate wells is shown. Control peptide B was used in this study. The competitor peptides in FIGS. 15A and 15B are those described herein. Competitor peptide VLA6 is identical to VL except that alanine is substituted for asparagine at position 6.
# [4] = tested on: reovirus type 3 receptor on L cells; assay: Inhibition of binding of radioiodinated reovirus particles to L cells; parameters: species or system murine; details: for binding to the reovirus type 3 receptor compared with VL peptide: summary statement in the discussion
# [5] = Rate of loss of sulfhydryls on air oxidation (Ellman determination); type: physicochemical; details: 2 mg/ml in 0.1 M NaHCO3, 37° C., exposed to air, FIG. 23
# [6] = Size-exclusion chromatography of oxidized peptides (Sephadex G-10); type: physicochemical; details: reduced versus non-reduced peptides
# reovirus type 1 [7] = tested on: reovirus type 1; parameters: species or system Balb/c mice; details: mouse, in vivo
# reovirus type 3 [8] = tested on: reovirus type 3; parameters: species or system Balb/c mice; details: mouse, in vivo
# reovirus type 3 [9] = tested on: reovirus type 3; parameters: species or system Balb/c mice; details: mouse, in vivo; remark: listed apart in the source
# reovirus type 1 [10] = tested on: reovirus type 1; parameters: species or system Balb/c mice; details: mouse, in vivo; remark: listed apart in the source
# [11] = tested on: neutralizing monoclonal antibody 9BG5; type: binding, mouse
# reovirus type 1 [12] = assay: Delayed type hypersensitivity (footpad swelling), reovirus type 1; type: in vivo, mice; details: footpad challenge with virus
# Protocol: (§1) FIG. 17 illustrates data for mice immunized with the reovirus types noted by injection of 10^7 PFU subcutaneously, or with the peptides noted at a dose of 100 μg split into two injections subcutaneously; one week later, mice were challenged with virus or peptides in the footpads; footpad swelling was determined as indicated in the following description 48 hours after challenge; the mean +SEM for groups of mice is shown.
# (§2) For the study of DTH response, groups of mice were inoculated with either synthetic peptide or live reovirus type 3 subcutaneously (s.c.) in two separate sites on the dorsal flanks of the animal (over each hind limb); 50 μg of a synthetic peptide or 10^7 viral particles/0.2 ml were given in separate injections of 0.1 ml vol. Six days later, animals were challenged in the left footpad with 3×10^7 viral particles suspended in saline containing 2% gelatin (30 μl). Footpad swelling was recorded 24 hr later in a blind fashion (Greene, M. I. and Weiner, H. L., J. Immunol. 125:283-287, 1980). Four animals per group were studied, and the magnitude of the response was determined by comparing the challenged left footpad to the untreated right footpad.
# reovirus type 3 [13] = assay: Delayed type hypersensitivity (footpad swelling), reovirus type 3; type: in vivo, mice
# Protocol: as §1, §2
# [14] = tested on: reovirus type 3 receptor (Reo3R); assay: Flow cytometry: inhibition of 87.92.6 binding to cells; parameters: species or system murine; details: for inhibition of binding of 87.92.6 to murine L cells / inhibition of binding of 87.92.6 to R1.1 thymoma cells: FIG. 29; for inhibition of binding of 87.92.6 to R1.1 thymoma cells: R1.1 cells
# Protocol: The ability of peptides to inhibit antibody binding to cells was determined by preincubation of the cells with varying amounts of inhibitor (in 100 μl dH2O) for between 30 minutes and 1 hour at 23° C. Cells (either L cells or R1.1 cells) were washed in 1% BSA/PBS/0.1% NaN3, and resuspended at 10^7/ml. 100 μl of cells were then added in 1% BSA/PBS/0.1% NaN3, and the incubation continued for 20-30 minutes. Antibodies (5 or 10 μl were added for an additional 20 minutes at 23° C. Ice cold 1% BSA/PBS/0.1% NaN3, was added, the cells centrifuged and washed prior to counterstaining with a 1:100 dilution of FITC goat anti-mouse Ig (Fisher Scientific) in 1% BSA/PBS/0.1% NaN3. The cells were washed twice and fluorescence intensity determined. Inhibition of binding was calculated as noted above with mean channel number utilized in place of CPM.
# To assess the affinity of the cyclic peptides for the reovirus type 3 receptor (Reo3R), they were utilized in a series of assays to inhibit binding of 87.92.6 or control antibodies to specific receptors. […] The inhibition by VLC9C16 peptide was specific as binding of isotype matched monoclonal H013.4 to Thy2 molecules was not inhibited by VLC9C16 peptide (FIG. 30). Thus, VLC9C16 peptide is a specific Reo3R ligand with enhanced affinity compared with its linear analog.
# 9B.G5 = assay: Competitive RIA: inhibition of 9B.G5 - 87.92.6 interaction; type: binding; details: liquid phase assay, FIGS. 25 and 26
substance,measurement,setting,value
Cys-Lys-Pro-Gly-Lys-Thr-Asn-Lys-Leu-Leu-Ile-Tyr-Ser-Gly-Ser-Thr-Leu-Gln (CKPGKTNKLLIYSGSTLQ; also: dimeric) [VLSH peptide],level of expression of the reovirus type 3 receptor,[1],specifically down-modulates
same,reovirus type 3 receptor expression (decrease in mean channel fluorescence),[1],specifically down-modulated
same,inhibition of spontaneous lymphocyte proliferation,[2],markedly inhibited
same,expression of Thy 1.2 molecules,[3],does not effect
same,expression of Thy 1.2 molecules (decrease in mean channel fluorescence),"[3]; peptides 100 μg/ml, FIG. 6",without effecting
same,inhibition of DNA synthesis by L cells,L cells,marked inhibition
KPGKTNKLLIYSGSALQ [VLA15],"binding to neutralizing monoclonal antibody 9BG5, variant peptide compared with VL peptide",monoclonal antibody 9BG5,increased binding to neutralizing monoclonal antibody
same,inhibition of con A induced lymphocyte proliferation,[2],attenuated
same,biologic activity compared with VL peptide,[2],decreased biological activity
same,binding to the reovirus type 3 receptor compared with VL peptide,[4],decreased binding to the reovirus type 3 receptor
KPGKTNKLLIYAGSTLQ [VLA12],"binding to neutralizing monoclonal antibody 9BG5, variant peptide compared with VL peptide",monoclonal antibody 9BG5,reduced binding to neutralizing monoclonal antibody
same,inhibition of con A induced lymphocyte proliferation,[2],attenuated
same,biologic activity compared with VL peptide,[2],reduced biologic activity
same,binding to the reovirus type 3 receptor compared with VL peptide,[4],reduced binding to the reovirus type 3 receptor
KPGKTNKCLIYSGSTCQ (cysteine pairing not given here) [VLC8C16 peptide],rate of loss of sulfhydryls,[5],most rapid loss of sulfhydryls
same,molecular form following oxidation by size-exclusion chromatography,[6],remained chiefly as monomers
"KSGNASTPQQLQNLTLDIRQR [control peptide, control peptide, unrelated to this system, reference compound]",neutralization of L-cell lysis by reovirus type 1 by immune serum,reovirus type 1 [7],no effect
same,binding of immune serum to type 3 virus coated plates,reovirus type 3 [8],bound poorly
same,neutralization of L-cell lysis by reovirus type 3 by immune serum,reovirus type 3 [9],no effect
same,binding of immune serum to type 1 virus coated plates,reovirus type 1 [10],bound poorly
same,specific binding of 9BG5 to peptide coated wells,[11],No significant binding
"KPGKTNKLLIYSGSTLQ [VL peptide, amino acids 39-55 of the light chain variable region of 87.92.6]",inhibition of binding of reovirus type 3 particles to 9BG5,monoclonal antibody 9BG5; FIGS. 10A-C,inhibits binding
same,reovirus type 3 receptor expression (decrease in mean channel fluorescence),[1],no effect
same,DTH response to reovirus type 1 after immunization with peptide,reovirus type 1 [12],did not demonstrate significant DTH responses
same,inhibition of spontaneous lymphocyte proliferation,[2],no significant effect
same,DTH response to reovirus type 3 after immunization with peptide,"reovirus type 3 [13]; footpad challenge with virus, FIGS. 15A and 15B",significant DTH responses
same,DTH to the peptide in animals primed with type 3 virus,"reovirus type 3 [13]; priming with type 3 virus, challenge with peptide",significant DTH
same,inhibition of binding of variant K to L cells,[4]; FIGS. 11A and 11B,inhibits binding
same,inhibition of binding of reovirus type 3 to L cells,[4]; FIGS. 11A-D,inhibits binding
same,inhibition of binding of reovirus type 1 to cells,[4]; reovirus type 1 utilizes a distinct receptor,not inhibited
same,inhibition of binding of 87.92.6 to murine L cells,[14],less effective competitor
same,inhibition of binding of 87.92.6 to R1.1 thymoma cells,[14],ineffectual
same,specific binding of 9BG5 to peptide coated wells,[11],small amount of binding
same,inhibition of DNA synthesis by L cells,L cells,no effect
KPGKTNKLLIYSASTLQ [VLA13],"binding to neutralizing monoclonal antibody 9BG5, variant peptide compared with VL peptide",monoclonal antibody 9BG5,increased binding
same,inhibition of con A induced lymphocyte proliferation,[2],increased effect
"QGLEWIGRIDPANG [VH peptide, amino acids 43-56 of the heavy chain variable region of 87.92.6 including CDR II]",level of expression of the reovirus type 3 receptor,[1],does not effect
same,expression of Thy 1.2 molecules,[3],does not effect
same,inhibition of 9B.G5 - 87.92.6 interaction,9B.G5,able to inhibit
same,interaction with the reovirus type 3 receptor (Reo3R),[14],does not significantly interact
same,inhibition of binding of 87.92.6 to murine L cells,[14],no effect
same,inhibition of binding of 87.92.6 to R1.1 thymoma cells,[14],no effect
same,specific binding of 9BG5 to peptide coated wells,[11],only achieved background levels
KPGKTNKLLCYSGSTCQ (cysteine pairing not given here) [VLC10C16 peptide],rate of loss of sulfhydryls,[5],more slowly
same,molecular form following oxidation by size-exclusion chromatography,[6],migrated more rapidly
